Data taken from patent publication US20250000881A1, “TREATMENT OF TREATMENT RESISTANT […] PSILOCYBIN” (COMPASS […], priority 2021, published 2025).

System: adult subjects with TRD
Assay: Phase 2b trial in TRD: safety, treatment emergent adverse events
Assay type: in vivo, human
From the text: Another objective was to evaluate the safety and tolerability of psilocybin in subjects with TRD based on AEs, changes in vital signs, and suicidal ideation/behaviour (measured using the Columbia-Suicide Severity Rating Scale [C-SSRS]) score at all visits.
Throughout the course of the study, all adverse events (AEs) were monitored and recorded and included the AE's description, start and end date, seriousness, severity, action taken, and relationship to the treatment. If AEs occurred, the first concern was the safety of the study subjects.
An AE can therefore be any unfavorable and unintended sign (including an abnormal laboratory finding, for example), symptom, or disease temporally associated with the use of a medicinal product, whether considered related to the medicinal product.
AEs were coded by Preferred Term (PT) using the Medical Dictionary for Regulatory Activities (MedDRA) classification. All reported AEs with onset or worsening after the administration of study medication were included in the analysis. The incidence of AEs was summarized by treatment group, and by severity and relationship to psilocybin. Serious AEs and AEs leading to withdrawal from the study will be tabulated.
A TEAE is defined as any AE that has an onset on or after the dose of psilocybin, or any pre-existing condition that has worsened on or after the dose of psilocybin.
The incidence of TEAEs and treatment-related AEs were summarized by maximum severity and most-related relationship to psilocybin by MedDRA primary system organ class and PT. The summary included the total number and percentage of subjects reporting an event.

CN(C)CCc1c[nH]c2cccc(OP(=O)(O)O)c12 [COMP360, psilocybin]
Any TESAE, participants (1 mg (N = 79)): 1 (1.3) n (%)
TEAE Abdominal pain upper, participants (1 mg (N = 79)): 1 (1.3) n (%)
TEAE Anxiety, participants (1 mg (N = 79)): 3 (3.8) n (%)
TEAE Back pain, participants (1 mg (N = 79)): 3 (3.8) n (%)
TEAE Depressed mood, participants (1 mg (N = 79)): 4 (5.1) n (%)
TEAE Depression, participants (1 mg (N = 79)): 5 (6.3) n (%)
TEAE Dizziness, participants (1 mg (N = 79)): 1 (1.3) n (%)
TEAE Euphoric mood, participants (1 mg (N = 79)): 4 (5.1) n (%)
TEAE Fatigue, participants (1 mg (N = 79)): 7 (8.9) n (%)
TEAE Headache, participants (1 mg (N = 79)): 20 (25.3) n (%)
TEAE Insomnia, participants (1 mg (N = 79)): 14 (17.7) n (%)
TEAE Irritability, participants (1 mg (N = 79)): 1 (1.3) n (%)
TEAE Mood altered, participants (1 mg (N = 79)): 1 (1.3) n (%)
TEAE Myalgia, participants (1 mg (N = 79)): 1 (1.3) n (%)
TEAE Nausea, participants (1 mg (N = 79)): 4 (5.1) n (%)
TEAE Panic reaction, participants (1 mg (N = 79)): 1 (1.3) n (%)
TEAE Paraesthesia, participants (1 mg (N = 79)): 1 (1.3) n (%)
TEAE Suicidal ideation, participants (1 mg (N = 79)): 4 (5.1) n (%)
TEAE Thinking abnormal, participants (1 mg (N = 79)): 0 n (%)
TESAE Adjustment disorder with anxiety, participants (1 mg (N = 79)): 0 n (%)
TESAE Adjustment disorder with mixed anxiety and depressed mood, participants (1 mg (N = 79)): 0 n (%)
TESAE Depression, participants (1 mg (N = 79)): 0 n (%)
TESAE Drug withdrawal syndrome*, participants (1 mg (N = 79)): 0 n (%)
TESAE Hospitalisation, participants (1 mg (N = 79)): 0 n (%)
TESAE Intentional self-injury, participants (1 mg (N = 79)): 1 (1.3) n (%)
TESAE Suicidal behaviour, participants (1 mg (N = 79)): 0 n (%)
TESAE Suicidal ideation, participants (1 mg (N = 79)): 0 n (%)
Patients with TEAEs of suicidal ideation, suicidal behaviour and intentional self-injury (1 mg group): four
Patients with TESAEs of suicidal ideation, suicidal behaviour and intentional self-injury (1 mg group): one
Any TESAE, participants (10 mg (N = 75)): 6 (8.0) n (%)
TEAE Abdominal pain upper, participants (10 mg (N = 75)): 2 (2.7) n (%)
TEAE Anxiety, participants (10 mg (N = 75)): 13 (17.3) n (%)
TEAE Back pain, participants (10 mg (N = 75)): 0 n (%)
TEAE Depressed mood, participants (10 mg (N = 75)): 5 (6.7) n (%)
TEAE Depression, participants (10 mg (N = 75)): 6 (8.0) n (%)
TEAE Dizziness, participants (10 mg (N = 75)): 1 (1.3) n (%)
TEAE Euphoric mood, participants (10 mg (N = 75)): 5 (6.7) n (%)
TEAE Fatigue, participants (10 mg (N = 75)): 5 (6.7) n (%)
TEAE Headache, participants (10 mg (N = 75)): 16 (21.3) n (%)
TEAE Insomnia, participants (10 mg (N = 75)): 11 (14.7) n (%)
TEAE Irritability, participants (10 mg (N = 75)): 2 (2.7) n (%)
TEAE Mood altered, participants (10 mg (N = 75)): 3 (4.0) n (%)
TEAE Myalgia, participants (10 mg (N = 75)): 2 (2.7) n (%)
TEAE Nausea, participants (10 mg (N = 75)): 7 (9.3) n (%)
TEAE Panic reaction, participants (10 mg (N = 75)): 1 (1.3) n (%)
TEAE Paraesthesia, participants (10 mg (N = 75)): 4 (5.3) n (%)
TEAE Suicidal ideation, participants (10 mg (N = 75)): 5 (6.7) n (%)
TEAE Thinking abnormal, participants (10 mg (N = 75)): 4 (5.3) n (%)
TESAE Adjustment disorder with anxiety, participants (10 mg (N = 75)): 0 n (%)
TESAE Adjustment disorder with mixed anxiety and depressed mood, participants (10 mg (N = 75)): 0 n (%)
TESAE Depression, participants (10 mg (N = 75)): 1 (1.3) n (%)
TESAE Drug withdrawal syndrome*, participants (10 mg (N = 75)): 0 n (%)
TESAE Hospitalisation, participants (10 mg (N = 75)): 1 (1.3) n (%)
TESAE Intentional self-injury, participants (10 mg (N = 75)): 2 (2.7) n (%)
TESAE Suicidal behaviour, participants (10 mg (N = 75)): 0 n (%)
TESAE Suicidal ideation, participants (10 mg (N = 75)): 2 (2.7) n (%)
Patients with TEAEs of suicidal ideation, suicidal behaviour and intentional self-injury (10 mg group): six
Patients with TESAEs of suicidal ideation, suicidal behaviour and intentional self-injury (10 mg group): four
Any TESAE, participants (25 mg (N = 79)): 5 (6.3) n (%)
TEAE Abdominal pain upper, participants (25 mg (N = 79)): 4 (5.1) n (%)
TEAE Anxiety, participants (25 mg (N = 79)): 7 (8.9) n (%)
TEAE Back pain, participants (25 mg (N = 79)): 6 (7.6) n (%)
TEAE Depressed mood, participants (25 mg (N = 79)): 3 (3.8) n (%)
TEAE Depression, participants (25 mg (N = 79)): 4 (5.1) n (%)
TEAE Dizziness, participants (25 mg (N = 79)): 6 (7.6) n (%)
TEAE Euphoric mood, participants (25 mg (N = 79)): 4 (5.1) n (%)
TEAE Fatigue, participants (25 mg (N = 79)): 12 (15.2) n (%)
TEAE Headache, participants (25 mg (N = 79)): 27 (34.2) n (%)
TEAE Insomnia, participants (25 mg (N = 79)): 8 (10.1) n (%)
TEAE Irritability, participants (25 mg (N = 79)): 4 (5.1) n (%)
TEAE Mood altered, participants (25 mg (N = 79)): 7 (8.9) n (%)
TEAE Myalgia, participants (25 mg (N = 79)): 5 (6.3) n (%)
TEAE Nausea, participants (25 mg (N = 79)): 18 (22.8) n (%)
TEAE Panic reaction, participants (25 mg (N = 79)): 4 (5.1) n (%)
TEAE Paraesthesia, participants (25 mg (N = 79)): 3 (3.8) n (%)
TEAE Suicidal ideation, participants (25 mg (N = 79)): 5 (6.3) n (%)
TEAE Thinking abnormal, participants (25 mg (N = 79)): 0 n (%)
TESAE Adjustment disorder with anxiety, participants (25 mg (N = 79)): 1 (1.3) n (%)
TESAE Adjustment disorder with mixed anxiety and depressed mood, participants (25 mg (N = 79)): 1 (1.3) n (%)
TESAE Depression, participants (25 mg (N = 79)): 0 n (%)
TESAE Drug withdrawal syndrome*, participants (25 mg (N = 79)): 1 (1.3) n (%)
TESAE Hospitalisation, participants (25 mg (N = 79)): 0 n (%)
TESAE Intentional self-injury, participants (25 mg (N = 79)): 2 (2.5) n (%)
TESAE Suicidal behaviour, participants (25 mg (N = 79)): 3 (3.8) n (%)
TESAE Suicidal ideation, participants (25 mg (N = 79)): 2 (2.5) n (%)
Patients with TEAEs of suicidal ideation, suicidal behaviour and intentional self-injury (25 mg group): seven
Patients with TESAEs of suicidal ideation, suicidal behaviour and intentional self-injury (25 mg group): four
MADRS item 10 (suicidality) scores post-administration, comparison of groups (25 mg, 10 mg, 1 mg groups, blinded remote rater): no difference between the three groups
Any TESAE, participants (Overall (N = 233)): 12 (5.2) n (%)
TEAE Abdominal pain upper, participants (Overall (N = 233)): 7 (3.0) n (%)
TEAE Anxiety, participants (Overall (N = 233)): 23 (9.9) n (%)
TEAE Back pain, participants (Overall (N = 233)): 9 (3.9) n (%)
TEAE Depressed mood, participants (Overall (N = 233)): 12 (5.2) n (%)
TEAE Depression, participants (Overall (N = 233)): 15 (6.4) n (%)
TEAE Dizziness, participants (Overall (N = 233)): 8 (3.4) n (%)
TEAE Euphoric mood, participants (Overall (N = 233)): 13 (5.6) n (%)
TEAE Fatigue, participants (Overall (N = 233)): 24 (10.3) n (%)
TEAE Headache, participants (Overall (N = 233)): 63 (27.0) n (%)
TEAE Insomnia, participants (Overall (N = 233)): 33 (14.2) n (%)
TEAE Irritability, participants (Overall (N = 233)): 7 (3.0) n (%)
TEAE Mood altered, participants (Overall (N = 233)): 11 (4.7) n (%)
TEAE Myalgia, participants (Overall (N = 233)): 8 (3.4) n (%)
TEAE Nausea, participants (Overall (N = 233)): 29 (12.4) n (%)
TEAE Panic reaction, participants (Overall (N = 233)): 6 (2.6) n (%)
TEAE Paraesthesia, participants (Overall (N = 233)): 8 (3.4) n (%)
TEAE Suicidal ideation, participants (Overall (N = 233)): 14 (6.0) n (%)
TEAE Thinking abnormal, participants (Overall (N = 233)): 4 (1.7) n (%)
TESAE Adjustment disorder with anxiety, participants (Overall (N = 233)): 1 (0.4) n (%)
TESAE Adjustment disorder with mixed anxiety and depressed mood, participants (Overall (N = 233)): 1 (0.4) n (%)
TESAE Depression, participants (Overall (N = 233)): 1 (0.4) n (%)
TESAE Drug withdrawal syndrome*, participants (Overall (N = 233)): 1 (0.4) n (%)
TESAE Hospitalisation, participants (Overall (N = 233)): 1 (0.4) n (%)
TESAE Intentional self-injury, participants (Overall (N = 233)): 5 (2.1) n (%)
TESAE Suicidal behaviour, participants (Overall (N = 233)): 3 (1.3) n (%)
TESAE Suicidal ideation, participants (Overall (N = 233)): 4 (1.7) n (%)
Patients with TEAEs of suicidal ideation, suicidal behaviour and intentional self-injury (all groups): 17 patients
Patients with TESAEs of suicidal ideation, suicidal behaviour and intentional self-injury (all groups): nine
TEAEs being mild or moderate in severity (all groups): more than 90%
TEAEs occurring on the day of administration that resolved on the same day or the day after (all groups): 77.4%
TEAEs of suicidal ideation, suicidal behaviour and intentional self-injury (all groups): 27 events
TESAEs of suicidal ideation, suicidal behaviour and intentional self-injury (all groups): 14 events
TESAEs of suicidality/self-injury that occurred at least one week after the session (all groups): 10 events out of 14
Participants reported at least one TEAE (all groups (233 patients)): 179 participants
Timing of suicidal behaviours after the psilocybin therapy session (all patients reporting these events were non responders at event onset): occurred at least one month after the psilocybin therapy session
Tolerability (single dose 1, 10 or 25 mg): generally well tolerated
TEAEs involving hallucination (25 mg and 10 mg groups only) and illusion (all groups): onset and resolution (started on the day of administration): resolved on the same day
